Literature values, collected in patent US5502059A, “Substituted 1-naphthyl-3-pyrazolecarboxamides which are active on neurotensin, their preparation and pharmaceutical compositions containing them” (Sanofi, priority 1993, dated 1996).

System: neurotensin receptors

## COc1cccc(OC)c1-c1cc(C(=O)NC2(C(=O)O)C3CC4CC(C3)CC2C4)nn1-c1ccnc2cc(Cl)ccc12 (stereo not shown) [SR 48692, 2-1-(7-chloro-4-quinolyl)-5-(2,6-dimethoxyphenyl)-3pyrazolylcarbonylamino!-2-adamantanecarboxylic acid]
  neurotensin-antagonist activity: potent and selective neurotensin-antagonist activity
